Reference: patent US5089623A, “Certain imidate insecticides” (Imperial Chemical Industries Plc, priority 1990, dated 1992)

Legend:
Format in all cases: in vivo
[1] = tested on: Housefly [Musca domestica]; assay: Housefly insecticidal test (HF); conditions: per 25 female houseflies, 48 hours
[2] = tested on: Tobacco Budworm [Heliothis virescens (Fabricius)]; assay: Tobacco budworm contact test (TBW-C); conditions: second-instar larvae, 5 days, percent in solution
Procedure: The compounds in Tables 1 and 2 above were tested for insecticidal activity using the following testing procedures. LC50 values, based on the results of these tests and calculated according to dosage-mortality curves, are expressed in Table 3.
Tobacco Budworm [Heliothis virescens (Fabricius)]
(a) Contact: Test compounds were diluted in a 50-50 acetonewater solution. Cotton (Gossypium sp.) cotyledons were immersed in the test solutions for 2-3 seconds and placed on a wire screen to dry. The dried leaves were placed in petri dishes containing a moistened piece of filter paper and infested with 5 second-instar tobacco budworm larvae. The dishes were placed in a high humidity chamber for 5 days, and percent mortality of the larvae recorded. Test concentrations ranged from 0.1% downward. The LC-50 values are expressed below in Table 3 under the heading "TBW-C" in terms of percent of the test compound in the solution.

[3] = tested on: Tobacco Budworm [Heliothis virescens (Fabricius)] eggs; assay: Tobacco budworm egg test (TBW-E); conditions: percent in solution
[4] = tested on: Cabbage Looper [Trichoplusia ni (Hubner)]; assay: Cabbage looper test (CL); conditions: second-instar larvae, 3-5 days, percent in solution
[5] = tested on: Aster Leafhopper [Macrosteles fascifrens (Stal)]; assay: Aster leafhopper test (LH); conditions: adults/nymphs, 48 hours, percent in solution
[6] = tested on: Maize weevil [Sitophilus Zeamais (Motschulsky)]; assay: Maize weevil test (MW); conditions: adult weevils, treated corn seeds, 48 hours, percent in solution
How it was run: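 Adult weevils (10) were placed with four corn seeds that had been dipped 2-3 s in compound dissolved in 50:50 acetone:water, then dried, and held at about 25° C. Mortality was scored at 48 h. LC50 was taken from dosage-mortality curves and expressed as percent compound in solution, from a 0.01% top concentration.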

Row | SMILES | LC50 HF [1] [µg] | LC50 TBW C [2] [%] | LC50 TBW E [3] [%] | LC50 CL [4] [%] | LC50 LH [5] [%] | LC50 MW [6] [%]
1 | CC(C)(C)C(=Nc1ccc(Cl)cc1)OCc1cccc(Oc2ccccc2)c1 [Compound 30] | > 100 | 0.01 | > 0.1 | 0.003 | > 0.05 | > 0.01
2 | CC(C)C(=Nc1ccc(Cl)c(Cl)c1)OCc1cccc(Oc2ccc(F)cc2)c1 [Compound 37] | 21 | 0.0005 | 0.014 | 0.0004 | 0.002 | 0.009
3 | ClC(Cl)C(=Nc1ccccc1)OCc1cccc(Oc2ccccc2)c1 [Compound 41] | 4.5 | 0.0035 | 0.04 | 0.015 | – | –
4 | Fc1ccc(N=C(OCc2cccc(Oc3ccccc3)c2)C(Cl)Cl)cc1 [Compound 44] | 3 | < 0.1 | 0.06 | – | – | –
5 | CC(C)C(=Nc1c(F)c(F)c(F)c(F)c1F)OCc1cccc(Oc2ccccc2)c1 [Compound 51] | 25 | 0.0025 | 0.067 | 0.001 | 0.001 | –
6 | CC(C)C(=Nc1ccc(F)c(F)c1)OCc1cccc(Oc2ccc(F)cc2)c1 [Compound 60] | 8 | 0.0009 | 0.017 | 0.001 | 0.002 | 0.0075
7 | Cc1c(F)cccc1N=C(OCc1cccc(Oc2ccccc2)c1)C(C)C [Compound 73] | 25 | 0.005 | 0.025 | 0.004 | – | –
8 | Cc1ccc(F)cc1N=C(OCc1cccc(Oc2ccccc2)c1)C(C)C [Compound 74] | 25 | 0.0025 | 0.025 | 0.005 | – | –
9 | Cc1ccc(N=C(OCc2cccc(Oc3ccccc3)c2)C(C)C)cc1F [Compound 75] | 5 | 0.0075 | 0.01 | 0.0025 | 0.0008 | –
10 | COc1ccc(N=C(OCc2cccc(Oc3ccccc3)c2)C(C)C)cc1Cl [Compound 95] | 10 | 0.004 | 0.025 | 0.0025 | – | –
11 | Cc1cc(Cl)ccc1N=C(OCc1cccc(Oc2ccccc2)c1)C(C)C [Compound 96] | 35 | 0.0025 | 0.025 | 0.003 | – | –
12 | CC(C)C(=Nc1ccc(F)c(C(F)(F)F)c1)OCc1cccc(Oc2ccc(F)cc2)c1 [Compound 120] | 14 | 0.0025 | 0.04 | 0.00015 | 0.0003 | > 0.01
13 | CCOc1ccc(N=C(OCc2cccc(Oc3ccccc3)c2)C(Cl)Cl)cc1 [Compound 138] | 19 | 0.015 | 0.08 | 0.005 | > 0.05 | > 0.01
14 | CC(C)(C)c1ccc(N=C(OCc2cccc(Oc3ccccc3)c2)C(Cl)Cl)cc1 [Compound 140] | > 100 | > 0.1 | > 0.1 | < 0.1 | – | –
15 | COc1ccccc1N=C(OCc1cccc(Oc2ccccc2)c1)C(C)C [Compound 145] | > 100 | 0.05 | > 0.1 | 0.05 | > 0.05 | –
16 | COc1ccc(N=C(OCc2cccc(Oc3ccccc3)c2)C(C)C)c(OC)c1 [Compound 146] | 40 | 0.025 | > 0.1 | 0.017 | – | –
17 | CC(=O)c1ccc(N=C(OCc2cccc(Oc3ccccc3)c2)C(C)C)cc1 [Compound 147] | 10 | 0.0075 | > 0.1 | 0.01 | – | –
18 | CC(C)C(=Nc1cccc(Cl)c1)OCc1cccc(Oc2ccc(F)cc2)c1 [Compound 194] | 10 | 0.0017 | 0.04 | 0.0005 | 0.0005 | > 0.01
19 | CC(C)C(=Nc1cc(F)cc(F)c1)OCc1cccc(Oc2ccc(F)cc2)c1 [Compound 199] | 8 | 0.003 | > 0.1 | 0.0006 | – | > 0.01
20 | CC(C)(C)C(=Nc1ccc(F)c(Cl)c1)OCc1cccc(Oc2ccc(F)cc2)c1 [Compound 204] | > 100 | 0.004 | > 0.1 | 0.0023 | – | > 0.01
21 | CCC(C)C(=Nc1ccc(F)c(Cl)c1)OCc1cccc(Oc2ccc(F)cc2)c1 (stereo not shown) [Compound 210] | 35 | 0.0015 | 0.045 | 0.00028 | – | > 0.01
22 | CC(C)C(=Nc1ccc2c(c1)OC(C)(C)O2)OCc1cccc(Oc2ccc(F)cc2)c1 [Compound 219] | 50 | 0.004 | 0.027 | 0.00025 | – | > 0.01
23 | CC(C)C(=Nc1cccc(C(F)(F)F)c1)OCc1ccc(F)c(Oc2ccc(Cl)cc2)c1 [Compound 266] | 10 | 0.0007 | 0.06 | 0.00016 | – | –
24 | C=C(C)C(=Nc1ccc(C(F)(F)F)cc1)OCc1ccc(F)c(Oc2ccc(Cl)cc2)c1 [Compound 432] | < 100 | < 0.1 | 0.032 | 0.0012 | – | > 0.01
25 | CC(C)C(=Nc1ccc(C(F)(F)F)cc1)OCc1cccc(Cc2ccccc2)c1 [Compound 543] | < 100 | – | > 0.1 | 0.0008 | < 0.05 | > 0.01
26 | COCc1c(F)c(F)c(COC(=Nc2ccc(C(C)(C)C)cc2)C(C)C)c(F)c1F [Compound 544] | > 100 | – | > 0.1 | > 0.1 | > 0.05 | > 0.01
27 | Cc1cccc(N=C(OCc2cccc(Oc3ccc(Cl)cc3)n2)C(C)C)c1 [Compound 545] | < 100 | – | > 0.1 | > 0.1 | > 0.05 | > 0.01
28 | C#CCc1c(F)c(F)c(COC(=Nc2cccc(C(F)(F)F)c2)C(C)C)c(F)c1F [Compound 546] | < 100 | – | > 0.1 | 0.0001 | < 0.05 | 0.0032
29 | C#CCc1c(F)c(F)c(COC(=Nc2ccc3c(c2)OCO3)C(C)C)c(F)c1F [Compound 547] | < 100 | – | 0.05 | 0.0005 | < 0.05 | > 0.01
30 | CC(C)C(=Nc1ccc(F)c(Cl)c1)OCc1cccc(Oc2ccccn2)c1 [Compound 549] | < 100 | – | > 0.1 | > 0.1 | > 0.05 | > 0.01
